Where two headings read alike, the source gives them in different places.

Broadly, the Ki is the dissociation constant of the complex between target and ligand, obtained from inhibition or displacement.

One data set relates to LNCaP cells. Put plainly: internalization assay (surface binding and internalization, with and without 2-PMPA block). The class given is cell-based. The settings on record: for Cell surface / Internalized: n = 4; for Cell surface blocked / Internalized blocked: with 2-PMPA 500 µM/well. The method, then: Poly-L-Lysine (300 µL of a 0.01% w/v in H2O) is added to each well of a 24-well plate (Greiner Bio). The plate is left at room temperature for 20-30 minutes. Afterwards, the poly-L-lysine solution is removed, and the wells washed with 500 µL of PBS. Afterwards, 1 mL of LNCaP cells suspension is placed in each well to obtain 10^5 cells/well. The 24-well plates are left in the incubator overnight until the start of the internalisation experiment. Subsequently, the previously plated cells were incubated at 37 °C with the selected ^18 F-labelled PSMA derivative in 250 µL growth medium for 45 min (c = 32 nM). For the determination of specific uptake, 2-PMPA was added into half of the wells in an excess concentration of 500 µM/well. After incubation, cellular uptake was interrupted by removing the medium and washing the cells with ice-cold PBS (3 × 1 mL). The surface bound radioactivity was removed by washing with 50 mM glycine (pH 2.8, 2 × 500 µL). Finally, the internalized fraction was determined by lysis of the cells with 0.3 M NaOH (1 × 500 µL). Fractions collected from the surface bound activity and lysates were collected and measured in a gamma counter. All counts were normalized to the starting activity and specific surface binding as well as specific internalization were determined by subtracting the non-specific binding obtained from the wells treated with 2-PMPA. Results were calculated and expressed as %AA/10^5 cells (% applied activity/105 cells, n = 4). [^68Ga]-PSMA617 was selected as a reference to compare internalization values. The experiment was conducted two times on different compounds. PSMA-617 was used as a reference and internal control for both experiments. […] The higher internalization could have a big impact on the therapeutic effect of such molecules.

The next data set deals with T1, PSMA (Rattus norvegicus, UniProt P70627).
T1 construct: tissue Taconic Biosciences (rats); host or cells: rat brain, sagittal slices containing midbrain
T1 sequence (P70627 whole entry): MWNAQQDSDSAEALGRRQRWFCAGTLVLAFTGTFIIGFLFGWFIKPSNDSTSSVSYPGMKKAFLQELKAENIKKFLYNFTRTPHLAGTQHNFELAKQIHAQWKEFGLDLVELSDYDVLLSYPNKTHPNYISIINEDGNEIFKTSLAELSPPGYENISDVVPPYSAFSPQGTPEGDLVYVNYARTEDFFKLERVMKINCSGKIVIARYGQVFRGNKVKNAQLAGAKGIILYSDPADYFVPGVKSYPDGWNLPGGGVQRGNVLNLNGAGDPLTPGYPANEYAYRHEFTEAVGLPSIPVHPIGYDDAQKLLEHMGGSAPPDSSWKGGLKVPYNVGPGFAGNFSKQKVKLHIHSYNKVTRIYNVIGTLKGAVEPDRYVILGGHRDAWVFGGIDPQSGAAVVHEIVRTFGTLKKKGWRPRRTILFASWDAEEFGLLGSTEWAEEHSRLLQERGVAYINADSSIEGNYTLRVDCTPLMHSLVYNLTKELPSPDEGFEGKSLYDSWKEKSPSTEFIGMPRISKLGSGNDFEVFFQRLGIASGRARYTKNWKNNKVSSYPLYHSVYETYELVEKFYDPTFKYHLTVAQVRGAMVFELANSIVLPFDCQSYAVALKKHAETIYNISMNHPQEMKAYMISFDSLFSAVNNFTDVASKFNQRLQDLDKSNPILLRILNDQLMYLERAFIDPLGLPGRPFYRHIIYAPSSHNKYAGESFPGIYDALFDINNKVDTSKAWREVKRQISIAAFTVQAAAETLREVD
Nature of the data set: in vitro autoradiography competition assay on rat brain slices against [^111In]In-PSMA-617. It counts as binding. As to the method: This method provided [^111In]-PSMA-617 in >95% radiochemical yield, as determined by reverse-phase HPLC.
Rat brain slices were obtained from female Sprague-Dawley rats (weight~250g; Taconic Biosciences). The rats were sacrificed by decapitation, brains were extracted, frozen at -80 °C and stored at the same temperature. To prepare slices for autoradiography, brains were cut into halves along the sagittal symmetry plane. Each half was mounted, lateral side up, on the cryostat sample holder pretreated by Tissue-Tek OCT compound and fixed by freezing in the cryostat. […]
For competition assay, the slides were incubated with 2 nM [^111In]In-PSMA-617 and increasing concentrations (0.1-30 nM) of investigated PSMA derivatives for the same amount of time in the same assay buffer. Non-specific binding was determined by adding 5 µM 2-(phosphonomethyl)pentanedioic acid (PMPA) to [^111In]In-PSMA-617 solutions. […]
The screens were then read by a Cyclone Plus storage phosphor system (Packard Instruments Co). Quantification of readings was done with Optiquant software (version 3.00, Packard Instruments Co). Namely, elliptic regions of interest (ROIs) encompassing the midbrain and cerebellar nuclei were drawn inside the brain slice images, while circular ROIs were drawn around calibration curve spots, and average exposure was calculated for both ROI categories. […]

Data set [1] is described as follows: in vivo PET imaging in rats of [^18F]-labeled PSMA derivatives. The conditions noted are these: healthy rats, i.v., 90-min PET acquisition (Figure 15). The method, then: Long-Evans female rats weighing 200 - 300 g (Charles River, Calco, Italy), were housed in a cage of 2-3 rats per cage and kept in a climate-controlled facility with a 12-hr light/dark cycle. The cages had environmental enrichment (nest box, biting stick). All rats were fed ad libitum with commercial breeding diet (1310 FORTI-Avlsfoder, Brogaarden, Altromin International) and had free access to water. All the experiments were performed in accordance with the European Commission's Directive 2010/63/EU, FELASA and ARRIVE guidelines for animal research and, with approval from The Danish Council for Animal Ethics (license numbers 2017-15-0201-01283 and 2017-15-0201-01375) together with the Department of Experimental Medicine, University of Copenhagen.
The scans were performed on the Siemens HRRT (High-Resolution Research Tomography) (CPS Innovations/Siemens, Malvern, PA, USA). On the day of experiment, the rats were weighed and then transported to the scanner at least 2 h before the scan. Anesthesia was induced using 3% isoflurane in oxygen flow. All rats were placed in a 2 × 2 custom made rat holder, enabling simultaneous scanning of four rats 17-19. While in the custom-made rat holder, the rats were kept under anesthesia with a constant flow of isoflurane (-2% isoflurane in oxygen). […]

The mark [2] stands for this setting: first experiment, LNCaP, 37 °C, 45 min, c = 32 nM.
Setting [3] is: second experiment ([^68Ga] compounds), LNCaP, 37 °C, 45 min, c = 32 nM.
The mark [4] stands for this setting: second experiment ([^68Ga] compounds).

Take `N=C(N)NCCCC(NC(=O)CN1C(=O)c2cc3nc4c(nc3cc2C1=O)CCc1c(cnnc1-c1ccc(OCC[18F])cc1)CC4)C(=O)NC(CCCNC(=N)N)C(=O)NC(CCCNC(=N)N)C(=O)NCC1CCC(C(=O)NC(Cc2ccc3ccccc3c2)C(=O)NCCCCC(NC(=O)NC(CCC(=O)O)C(=O)O)C(=O)O)CC1` (centres unmarked) [[^18F]40, PSMA-3Arg-NH-T4CO-FTz]: in the data set on LNCaP cells (setting [2]), the Cell surface was found to be 5.15 ± 0.87 %AA/10^5 cells, the Internalized stood at 4.53 ± 0.55 %AA/10^5 cells, the Cell surface blocked is on record as 4.70 ± 1.05 %AA/10^5 cells and the Internalized blocked was 4.10 ± 0.65 %AA/10^5 cells. Also, the Ki at PSMA (read-out: Affinity (Ki), competition with 2 nM [^111In]In-PSMA-617, 1.5 h, Ki from IC50 by Cheng-Prusoff, mean ± SD, number of determinations in parentheses) is 47.5 nM.

`O=C(O)CC[C@H](NC(=O)N[C@@H](CCCCNC(=O)[C@H](Cc1ccc2ccccc2c1)NC(=O)[C@H]1CC[C@H](CNC(=O)CN2CCN(CC(=O)O)CCN(CC(=O)O)CCN(CC(=O)O)CC2)CC1)C(=O)O)C(=O)O` [[^68Ga]-PSMA-617, vipivotide tetraxetan, metal not drawn, reference compound]: in the data set on LNCaP cells (setting [2]), the Cell surface worked out at 0.36 ± 0.03 %AA/10^5 cells, the Internalized is recorded as 0.27± 002 %AA/10^5 cells, the Cell surface blocked is 0.03± 0.01 %AA/10^5 cells and the Internalized blocked is reported as 0.03 ± 0.01 %AA/10^5 cells. Further, in the data set with LNCaP cells (setting [3]), the Cell surface came to 0.36 ± 0.03 %AA/10^5 cells and the Internalized turned out to be 0.13± 001 %AA/10^5 cells. In the data set on LNCaP cells (setting [4]), the Cell surface blocked came out at 0.03± 0.01 %AA/10^5 cells and the Internalized blocked was 0.02 ± 0.01 %AA/10^5 cells.

`O=C(O)CC[C@H](NC(=O)N[C@@H](CCCCNC(=O)[C@H](Cc1ccc2ccccc2c1)NC(=O)[C@H]1CC[C@H](CNC(=O)CN2C(=O)c3cc4nc5c(nc4cc3C2=O)CCc2c(cnnc2-c2ccc(OCCF)cc2)CC5)CC1)C(=O)O)C(=O)O` [[^18F]16, PSMA-NH-T4CO-FTz]: the excretion route entry in data set [1] is “excreted mainly through the liver”. In the data set with LNCaP cells (setting [2]), the Cell surface is recorded as 0.36 ± 0.03 %AA/10^5 cells, the Internalized is on record as 1.98 ±0.17 %AA/10^5 cells, the Cell surface blocked is 0.09 ± 0.01 %AA/10^5 cells and the Internalized blocked was determined as 0.78 ± 0.11 %AA/10^5 cells.

In the data set on LNCaP cells (setting [2]), `N=C(N)NCCCC(NC(=O)CN1C(=O)c2cc3nc4c(nc3cc2C1=O)CCc1c(cnnc1-c1ccc(OCC[18F])cc1)CC4)C(=O)NC(CCC(=O)O)C(=O)NC(CCCNC(=N)N)C(=O)NC(CCC(=O)O)C(=O)NC(CCCNC(=N)N)C(=O)NC(CCC(=O)O)C(=O)NCC1CCC(C(=O)NC(Cc2ccc3ccccc3c2)C(=O)NCCCCC(NC(=O)NC(CCC(=O)O)C(=O)O)C(=O)O)CC1` (centres unmarked) [[^18F]30, PSMA-NH-AAAAAA-T4CO-FTz] returned a Cell surface of 0.64 ± 0.10 %AA/10^5 cells, an Internalized of 0.54 ± 0.06 %AA/10^5 cells, a Cell surface blocked of 0.08 ± 0.01 %AA/10^5 cells and an Internalized blocked of 0.07 ± 0.01 %AA/10^5 cells. The Ki at PSMA (competition with 2 nM [^111In]In-PSMA-617, 1.5 h, Ki from IC50 by Cheng-Prusoff, mean ± SD, number of determinations in parentheses, read-out: Affinity (Ki)) was 3.1 ± 0.28 nM.

(Values after patent EP4509145A1, “PSMA THERANOSTIC COMPOUNDS ASSEMBLED WITH TETRAZINE-TRANS-CYCLOOCTENE LIGATION” (University of Copenhagen, priority 2023, dated 2025).)
